In patent publication US20250186542A1, “COMPOSITION CONTAINING PEPTIDE COMPOUND FOR USE WITH SURFACTANT” (CHUGAI SEIYAKU KABUSHIKI KAISHA, priority 2022, published 2025):
In brackets after ≈: the same amount, converted by molar mass. Bridge positions count the residues as written; N and C are the ends. Square brackets hold non-standard residues; d marks the D form. Peptide text beside a SMILES is read from it. * marks the point of attachment. ξ: configuration not given here. hPhe(3-Cl-4-CF3) = N[C@@H](CCc1ccc(C(F)(F)F)c(Cl)c1)C(=O)O; Phe(3-Cl) = N[C@@H](Cc1cccc(Cl)c1)C(=O)O; NMeCha = CN[C@@H](CC1CCCCC1)C(=O)O; NMeChg = CN[C@H](C(=O)O)C1CCCCC1; NMeF = CN[C@@H](Cc1ccccc1)C(=O)O; NMeD = CN[C@@H](CC(=O)O)C(=O)O; dNMeD = CN[C@H](CC(=O)O)C(=O)O; dNMeL = CN[C@H](CC(C)C)C(=O)O; ξIle = CC[C@H](C)C(N)C(=O)O; NMeS = CN[C@@H](CO)C(=O)O; Pip = O=C(O)[C@@H]1CCCCN1; Nle = CCCC[C@H](N)C(=O)O; Piperidide = C1CCN(*)CC1; Pyrrolidide = C1CCN(*)C1; dNMeA = CN[C@H](C)C(=O)O; Ac5c = NC1(C(=O)O)CCCC1; Sar = CNCC(=O)O; Propyl = CCC*

What was measured:
Caco-2 cells = test: Evaluation of Caco-2 membrane permeability; format: in vitro ADME; conditions: HBSS pH 7.4 4% BSA basal, 180 minutes; for Without 5 mM lauroyl-L-carnitine Permeability coefficient (Caco-2 Papp): 10 µM compound in FaSSIF/HBSS pH 6.5 apical, no lauroyl-L-carnitine; for With 5 mM lauroyl-L-carnitine Permeability coefficient (Caco-2 Papp): 10 µM compound, 5 mM lauroyl-L-carnitine in FaSSIF/HBSS pH 6.5 apical
Description: (§1) In the above measurements, a Pgp inhibitor, such as Zosquidar, can be added to the FaSSIF/HBSS buffer and the HBSS buffer, respectively.
(§2) After step (step 1) and before step (step 2) of the above, pre-incubation can be performed by allowing each well to stand at 5% CO2, 37° C., 80 rpm for 20 to 24 hours.
(§3) After pre-incubation, the solution at the Basal side can be removed and washed, and a new solution of the same composition can be added. A Pgp inhibitor can also be added to the new solution. When the pre-incubation is performed, it is preferable that a DMEM solution (pH 7.4) containing 4% BSA is used instead of the HBSS buffer (pH 7.4).
(§4) In addition, as the concentration of the substance to be evaluated on the donor side used in the calculation of the permeability coefficient in step (step 3) above, the concentration when initially added can be used, or the concentration measured by collecting the solution at the Apical side before the start of pre-incubation or the start of shaking in the above step (step 2) can be used. In particular, when the preincubation is performed, it is preferable to use the concentration of the solution at the Apical side collected before pre-incubation.

[1] = Evaluation of Caco-2 membrane permeability; format: in vitro ADME; conditions: human
Description: as §1, §2, §3, §4

physchem = format: physicochemical
Description: To an excessive amount of a lyophilized powder of the compound, 50 mM phosphate buffer (PPB, pH 6.5) is added, and after shaking (37° C., 1 atm, 1800 rpm, for 22 to 24 hours), the mixture is filtered with a filter, and the compound concentration of the filtrate is measured by LC/MS/MS. Solubility (g/mL) is calculated from the measured compound concentration.
Solubility (μg/mL) was calculated from the measured compound concentration.

[2] = Caco-2, With 5 mM lauroyl-L-carnitine Permeability coefficient (Caco-2 Papp)
[3] = Caco-2, Without 5 mM lauroyl-L-carnitine Permeability coefficient (Caco-2 Papp)
[4] = 50 mM phosphate buffer pH 6.5, 37° C., 1 atm, 22 to 24 hours, read-out: PPB solubility

| Without 5 mM lauroyl-L-carnitine Permeability coefficient (Caco-2 Papp) (Caco-2 cells) [×10⁻⁶ cm/s] | With 5 mM lauroyl-L-carnitine Permeability coefficient (Caco-2 Papp) (Caco-2 cells) [×10⁻⁶ cm/s] | solubility (physchem; [4]) [µg/mL] | Papp A→B at 180 min ([1]; Caco-2, 5 mM lauroyl-L-carnitine in FaSSIF/HBSS pH 6.5 apical, HBSS pH 7.4 4% BSA basal, 180 minutes) [×10⁻⁶ cm/s] | SMILES | Papp A→B at 180 min [1, 2] [×10⁻⁶ cm/s] | Papp A→B at 180 min [1, 3] [×10⁻⁶ cm/s] | solubility (physchem; pH 6.5) [µg/mL] |
| --- | --- | --- | --- | --- | --- | --- | --- |
| 0.00949 | 0.0214 | 9.18 (≈ 6.74 µM) |  | CC[C@H](C)[C@@H]1NC(=O)C(CC(C)C)N(C)C(=O)CC(C(=O)N(C)C)N(C)C(=O)[C@H](C2CCCC2)N(C)C(=O)C(C)NC(=O)C(C)N(C)C(=O)[C@H](CCc2ccc(C(F)(F)F)c(Cl)c2)NC(=O)CN(C)C(=O)[C@H](CC2CCCCC2)N(C)C(=O)[C@@H]2CCN2C(=O)[C@H](C)N(C)C1=O (single isomer, unassigned) [Compound 9] |  |  |  |
| 0.0142 | 0.253 | 1.12 (≈ 0.777 µM) |  | CC[C@H](C)C1NC(=O)[C@@H](CC(C)C)N(C)C(=O)C[C@H](C(=O)N2CCCCC2)N(C)C(=O)[C@H](C2CCCCC2)N(C)C(=O)C2(CCCC2)NC(=O)[C@@H]2CCCN2C(=O)[C@H](CCc2ccc(C(F)(F)F)c(Cl)c2)NC(=O)CN(C)C(=O)[C@H](CC2CCCCC2)N(C)C(=O)CN(C)C(=O)CN(C)C1=O (some centres unmarked) [Compound 1] ([dNMeL][ξIle][Sar][Sar][NMeCha][Sar][hPhe(3-Cl-4-CF3)]P[Ac5c][NMeChg][dNMeD]-Piperidide; lactam N-11) |  |  |  |
| 0.0491 | 0.265 | 1.18 (≈ 0.81 µM) |  | CC[C@H](C)[C@@H]1NC(=O)[C@H](CC(C)C)N(C)C(=O)CC(C(=O)N2CCOCC2)N(C)C(=O)[C@H](C2CCCC2)N(C)C(=O)C2(CCCC2)NC(=O)[C@@H]2CCCN2C(=O)[C@H](CCc2ccc(C(F)(F)F)c(Cl)c2)NC(=O)CN(C)C(=O)[C@H](CC2CCCCC2)N(C)C(=O)[C@@H]2CCN2C(=O)[C@H](C)N(C)C1=O (single isomer, unassigned) [Compound 2] |  |  |  |
| <0.00976 |  | 101 (≈ 71.6 µM) | 0.014 | CC[C@H](C)[C@@H]1NC(=O)[C@H](CC(C)C)N(C)C(=O)CC(C(=O)N2CCOCC2)N(C)C(=O)[C@H](C2CCCC2)N(C)C(=O)C2(CCCC2)NC(=O)[C@@H]2CCCN2C(=O)[C@H](CCc2ccc(C(F)(F)F)c(Cl)c2)NC(=O)CN(C)C(=O)[C@H](C2CCCC2)N(C)C(=O)[C@@H]2CCN2C(=O)[C@H](C)NC1=O (single isomer, unassigned) [Compound 10] |  |  |  |

Further lines, the molecule ahead of its results:

| SMILES | Without 5 mM lauroyl-L-carnitine Permeability coefficient (Caco-2 Papp) (Caco-2 cells) [×10⁻⁶ cm/s] | With 5 mM lauroyl-L-carnitine Permeability coefficient (Caco-2 Papp) (Caco-2 cells) [×10⁻⁶ cm/s] | solubility (physchem; [4]) [µg/mL] | Papp A→B at 180 min ([1]; Caco-2, 5 mM lauroyl-L-carnitine in FaSSIF/HBSS pH 6.5 apical, HBSS pH 7.4 4% BSA basal, 180 minutes) [×10⁻⁶ cm/s] | Papp A→B at 180 min [1, 2] [×10⁻⁶ cm/s] | Papp A→B at 180 min [1, 3] [×10⁻⁶ cm/s] | solubility (physchem; pH 6.5) [µg/mL] |
| --- | --- | --- | --- | --- | --- | --- | --- |
| CCCC[C@@H]1NC(=O)[C@@H]2CCCN2C(=O)[C@H](CCCC)NC(=O)[C@@H](C)N(C)C(=O)C[C@@H](C(=O)N2CCCC2)N(C)C(=O)[C@@H]2CCCN2C(=O)[C@H]([C@@H](C)CC)NC(=O)[C@@H]2CCCCN2C(=O)[C@H](Cc2cccc(Cl)c2)NC(=O)[C@H](COCCC)N(C)C(=O)[C@H](Cc2ccccc2)N(C)C1=O [Compound 5] ([dNMeA][Nle]P[Nle][NMeF][NMeS](Propyl)[Phe(3-Cl)][Pip]IP[NMeD]-Pyrrolidide; lactam N-11) | 0.00372 | 0.0264 |  |  |  |  |  |
| CC[C@H](C)[C@@H]1NC(=O)[C@H](CC(C)C)N(C)C(=O)CC(C(=O)N2CCOCC2)N(C)C(=O)[C@H](C2CCCC2)N(C)C(=O)C2(CCCC2)NC(=O)[C@@H]2CCCN2C(=O)[C@H](CCc2ccc(C(F)(F)F)c(Cl)c2)NC(=O)CN(C)C(=O)[C@H](Cc2ccc(C)cc2)N(CC)C(=O)[C@@H]2CCN2C(=O)[C@H](C)N(C)C1=O (single isomer, unassigned) [Compound 3] |  |  |  |  | 0.366 | 0.215 | 1.81 (≈ 1.22 µM) |
| CC[C@@H](C)[C@H]1NC(=O)[C@@H](Cc2ccccc2)N(C)C(=O)CN(C)C(=O)C[C@@H](C(=O)N2CCCCC2)NC(=O)[C@@H](CC(C)C)N(C)C(=O)[C@@H](COC(C)(C)C)NC(=O)[C@@H](CC(C)C)N(C)C(=O)[C@@H](CCc2ccccc2)N(C)C(=O)CN(C)C(=O)[C@@H]([C@H](C)O)NC(=O)[C@@H](CC(C)C)N(C)C1=O (stereo in doubt) [Compound 7] | <0.0944 | 0.526 | 5.76 (≈ 4.11 µM) |  |  |  |  |
| CCCCN1CC(=O)N(C)[C@@H](CC(C)C)C(=O)N[C@@H](Cc2ccc(C(=O)NS(C)(=O)=O)c(OC)c2)C(=O)N(C)[C@@H](CC(C)C)C(=O)N(C)[C@@H](CC(C)C)C(=O)NC(C(=O)N2CCCCC2)CC(=O)NC(CC(C)C)C(=O)N(C)[C@@H](Cc2ccccc2)C(=O)NC(C(C)C)C(=O)N(C)[C@@H](CC(C)C)C(=O)N[C@@H]([C@H](C)O)C1=O (single isomer, unassigned) [Compound 11] |  |  |  |  | 0.0302 | 0.00921 | 16.2 (≈ 10.3 µM) |
| CC[C@H](C)[C@@H]1NC(=O)[C@H](CC(C)C)N(C)C(=O)CC(C(=O)N2CCCCC2)N(C)C(=O)[C@H](C2CCCC2)N(C)C(=O)C2(CCCC2)NC(=O)[C@@H]2CCCN2C(=O)[C@H](CCc2ccc(C(F)(F)F)c(Cl)c2)NC(=O)CN(C)C(=O)[C@H](CC2CCCCC2)N(C)C(=O)[C@@H]2CCN2C(=O)[C@H](C)N(C)C1=O (single isomer, unassigned) [Compound 8] | 0.042 | 0.154 | 1.13 (≈ 0.777 µM) |  |  |  |  |
